Assay results reported in patent US20100029619A1, “FUSED HETEROCYCLIC COMPOUND” (TAKEDA PHARMACEUTICAL COMPANY LIMTED, priority 2006, published 2010).

Row | Structure (SMILES) | melting point
1 | Cc1cccc2nc(NC(=O)c3ccc(C(C)(C)C)cc3)cn12 [Example 65, 4-tert-Butyl-N-(5-methylimidazo[1,2-a]pyridin-2-yl)benzamide] | 204 to 205 °C
2 | CC(O)c1ccc2nc(NC(=O)c3ccc(C(C)(C)C)cc3)cn2c1 (centres unmarked) [Example 71, 4-tert-butyl-N-[6-(1-hydroxyethyl)imidazo[1,2-a]pyridin-2-yl]benzamide] | 249 to 250 °C
3 | CC(C)(C)c1ccc(C(=O)Nc2cn3cc(-c4ncc[nH]4)ccc3n2)cc1 [Example 73, 4-tert-butyl-N-[6-(1H-imidazol-2-yl)imidazo[1,2-a]pyridin-2-yl]benzamide] | 300 to 301 °C
4 | CC(C)(C)c1ccc(C(=O)Nc2cn3cc(-c4cnco4)ccc3n2)cc1 [Example 74, 4-tert-butyl-N-[6-(1,3-oxazol-5-yl)imidazo[1,2-a]pyridazin-2-yl]benzamide] | 265 to 266 °C
5 | CC(C)(C)c1ccc(C(=O)Nc2cn3cc(-c4cnc[nH]4)ccc3n2)cc1 [Example 76, 4-tert-butyl-N-[6-(1H-imidazol-5-yl)imidazo[1,2-a]pyridin-2-yl]benzamide] | 297 to 298 °C
6 | CC(C)(C)c1ccc(C(=O)Nc2cn3cc(C#N)ccc3n2)cc1 [Example 78, 4-tert-butyl-N-[6-cyanoimidazo[1,2-a]pyridin-2-yl]benzamide] | 300 to 301 °C
7 | CN(C)Cc1ccc2nc(NC(=O)c3ccc(C(C)(C)C)cc3)cn2c1 [Example 80, 4-tert-butyl-N-[6-(dimethylaminomethyl)imidazo[1,2-a]pyridin-2-yl]benzamide] | 236 to 237 °C
8 | CN(C)c1ccc(C(=O)Nc2cn3cc(-n4ccnc4)ccc3n2)cc1 [Example 85, 4-dimethylamino-N-[6-(1H-imidazol-1-yl)imidazo[1,2-a]pyridin-2-yl]benzamide] | 247 to 248 °C
9 | CC(C)(C)c1ccc(C(=O)Nc2cn3cc(-n4ccnc4)ccc3n2)cn1 [Example 86, 6-tert-butyl-N-[6-(1H-imidazol-1-yl)imidazo[1,2-a]pyridin-2-yl]nicotinamide] | 242 to 245 °C
10 | O=C(Nc1cn2cc(-n3ccnc3)ccc2n1)c1ccc(-c2ncc[nH]2)cc1 [Example 88, 4-(1H-imidazol-2-yl)-N-[6-(1H-imidazol-1-yl)imidazo[1,2-a]pyridin-2-yl]benzamide] | 276 to 279 °C (dec.)
11 | O=C(Nc1cn2cc(-n3ccnc3)ccc2n1)c1ccc(-c2ccoc2)cc1 [Example 89, 4-(3-furyl)-N-[6-(1H-imidazol-1-yl)imidazo[1,2-a]pyridin-2-yl]benzamide] | 261 to 263 °C

The next lines start with the values.

Row | melting point | Structure (SMILES)
12 | 240 to 242 °C | CC(C)(CO)c1ccc(C(=O)Nc2cn3cc(Cl)ccc3n2)cc1 [Example 90, N-[6-chloroimidazo[1,2-a]pyridin-2-yl]-4-(2-hydroxy-1,1-dimethylethyl)benzamide]
13 | 235 to 237 °C | CC(C)(N)c1ccc(C(=O)Nc2cn3cc(Cl)ccc3n2)cc1 [Example 92, 4-(1-amino-1-methylethyl)-N-(6-chloroimidazo[1,2-a]pyridin-2-yl)benzamide]
14 | 245 to 247 °C | CC(C)(CN)c1ccc(C(=O)Nc2cn3cc(Cl)ccc3n2)cc1 [Example 94, 4-(2-amino-1,1-dimethylethyl)-N-(6-chloroimidazo[1,2-a]pyridin-2-yl)benzamide]
15 | 287 to 289 °C | O=C(Nc1cn2cc(Cl)ccc2n1)c1ccc(-n2cccn2)cc1 [Example 95, N-(6-chloroimidazo[1,2-a]pyridin-2-yl)-4-(1H-pyrazol-1-yl)benzamide]
16 | 291 to 293 °C | CC(C)c1ccc(C(=O)Nc2cn3cc(-n4ccnc4)ccc3n2)cc1 [Example 97, N-[6-(1H-imidazol-1-yl)imidazo[1,2-a]pyridin-2-yl]-4-isopropylbenzamide]
17 | 251 to 253 °C | CC(C)(C)c1ccc(C(=O)Nc2cn3cc(-c4cnco4)ccc3n2)cn1 [Example 100, 6-tert-butyl-N-[6-(1,3-oxazol-5-yl)imidazo[1,2-a]pyridin-2-yl]nicotinamide]
